Results published in patent US20100280125A1, “MEDICINAL AGENT” (priority 2004, published 2010).

How the values were obtained:
papillary thyroid cancer = assay: treatment of patient R, papillary thyroid cancer; format: in vivo, human
Method: The patient was treated with the medicinal agent (B.V.2) for 2 weeks; one gelatine capsule two times a day with 20 mg medicinal agent perorally after food and enemas in a single dose of 100 ml solution, comprising 50 mg medicinal agent powder, diluted in 2 ml 70% ethyl alcohol and dissolved in 100 ml water solution with 0.9% NaCl.

[1] = system: cancer of the right ovary (recidiv); assay: treatment of patient I, recidiv of ovary cancer; format: in vivo, human
Method: Exstirpation of the uterus and the surrounding area on account of cancer of the right ovary was performed on patient I who was […] and had visited the doctor in November 2002. The tomogram that was dated 28 Aug.
The patient was treated with an enema of the rectum: over five days once a day, after five procedures once every other day and thereafter every third day for 15 enemas. They were treated with a single dose of 20 mg medicinal agent (B.V.2) per 15-20 ml water, diluted in 2 ml 70% ethyl alcohol.

[2] = system: human malignant melanoma A 375; assay: replication of melanoma cells in test glasses; format: cell-based; settings: a week at 37° C. in the dark, in comparison to physiological salt solution
Method: In addition, a third control group of test glasses (6 glasses) was formed with the same cancer cell pool and fibroblasts, into which adriamycin and cyclophosphan in the same dilution was introduced, as well as a corresponding test glass group with a physiological salt solution.
After thermostatization of the above-mentioned test glasses for a week at 37° C. (in the dark), the contents were analyzed.

melanoma 16 = format: in vivo, mice; settings: for mice survived as far as the 36th day: control sub groups of 10 mice, 5 mg in water solution as a drink; for findings during the dissection: first and second sub group of the control group, 5 mg as a drink
Method: B57 type mice in the test and control group (60 mice each) were injected with melanoma 16. The test group were divided into 6 sub groups and the control group was divided into 3 sub groups, each with 10 mice.

[3] = 3 hours after taking the dose, over 7 days

Row | Compound | duration of the dissymmetric effect (papillary thyroid cancer) [h] | ultrasound investigation after the treatment (papillary thyroid cancer; 2 weeks, capsules 20 mg two times a day and enemas 50 mg, growth 5×3×1.7 cm before) | temperature on the left side of the body (dissymmetric effect) (papillary thyroid cancer; [3]) | temperature on the right side of the body (dissymmetric effect) (papillary thyroid cancer; [3]) | growth in control investigation using ultrasound ([1]; 2 Mar. 2004) | erythrocytes ([1]; after the treatment, before 2.5 million) [million] | thrombocytes ([1]; after the treatment, before 110,000) | leucocytes ([1]; after the treatment, before up to 10,000) | suppression of the replication of the melanoma cells ([2]; dilution of 10^−7 mmol/l) [%] | suppression of the replication of the melanoma cells ([2]; dilution of 10^−9 mmol/l) [%] | mice survived as far as the 36th day (melanoma 16) [mice] | findings during the dissection (melanoma 16)
1 | hexamethyl pararosanilin chloride [methyl violet 10B] | 1.0 to 1.5 | a primary growth and no metastases | 37.3-38.6 °C | 35.4-36.9 °C | no longer to be found | 5.5 | 300,000 | 9,000 |  |  |  | 
2 | COc1cccc2c1C(=O)c1c(O)c3c(c(O)c1C2=O)C[C@@](O)(C(=O)CO)C[C@@H]3O[C@H]1C[C@H](N)[C@H](O)[C@H](C)O1 [adriamycin] |  |  |  |  |  |  |  |  | 42 | 30 | 2 | lung and liver injuries
3 | O=P1(N(CCCl)CCCl)NCCCO1 (stereo not shown) [cyclophosphan] |  |  |  |  |  |  |  |  | 55 | 35 | 5 | lung and liver injuries
